Source: patent publication US11351151B2, “Compound having anticancer activity and preparation method and application” (3D Medicines (Beijing) Co., Ltd., priority 2016, dated 2022)

Assays:
Test in all cases: Cell proliferation assay (Alamar Blue)
Assay type in all cases: cell-based
22RV1 = conditions: Homo sapiens, 144 h; 22RV1 tumor cell line; 6 days
Procedure: (§1) 1. Instruments and Materials • Thermo 311 CO2 incubator; Haier biosafety cabinet; Molecular Devices microplate reader; Xiangyi brand L530 desktop low speed centrifuge; Olympus IX51 inverted fluorescence microscope, DMEM, RPMI 1640, MEM, DMEM/F12 1:1 medium, Fetal bovine serum, 0.25% trypsin solution, phosphate buffer (Thermo Fisher Shanghai Co., Ltd.); sigma dimethyl sulfoxide (DMSO), resazurin; 54 commercial tumor cell lines (including 26 liver cancer cell lines). Experimental drugs: compounds 1-12 and active drug Linifanib; chemotherapeutic drug Doxorubicin (HY-15142; Shanghai Qianyuan Biomedical Technology Co., Ltd.).
(§2) 2. Experimental Methods • 2.1 Cultivation of different cell lines • 54 cell lines were cultured in a culture medium containing fetal bovine serum and placed in a 5% CO 2 incubator at 37° C. for incubation. The cells were all grown in an adherent state, and the growth was observed under an inverted microscope, and subculture was performed when the cell confluence rate reached 80%-90%. The proportion and quantity of passage were determined by experimental needs. The ratio of subculture of this cell line was generally 1:2^˜1:3. • 2.2 inhibition effect on the proliferation of different tumor cell lines • Cell test: 54 cell lines in logarithmic growth phase were inoculated in 96-well culture plates at 500^˜1×10^4/well (the optimal seeding density of each cell line was determined in pre-experiment), After incubating at 37° C. for 4 h in a 5% CO2 humidification incubator, added 10 μL of compounds 1-12 or Linifanib to each well, and tested 9 drug concentration gradients for each compound (diluted from the highest concentration of the test by 3.16 times). The solubility of each compound was different at a starting concentration of 30 or 100 μM, respectively. The QC reference compound Doxorubicin was added simultaneously to each cell line test, and the final drug concentrations were 10, 3.16, 1, 0.31, 0.1, 0.03, 0.01, 0.003, and 0.001 μM, respectively. In addition, a positive control group (100% inhibition) and a negative control group (0% inhibition) were set at the same time. The drug group was repeated for 2 wells per concentration, and the positive control group and the negative control group were repeated for 6 wells. After the culture was continued for 6 days in the incubator, AlamarBlue test operation was followed; • AlamarBlue test procedure: Incubated with 10 μL of AlamarBlue reagent per well for 1-4 h, shook for 1-2 min, MD microplate reader EX: 560 nm, EM: 590 nm wavelength to measure fluorescence, recorded the results, calculated the cell inhibition rate of the compound of the invention. Cell inhibition rate (%)=(A0% inhibition−A administration)/(A0% inhibition−A100% inhibition)×100%, and then using the method of nonlinear regression using Graph Pad Prism 5.0 or MATILAB software (usually using four parameters) to graph and obtain a drug dose response curve to obtain an IC50 value of the compound of the present invention acting on a cancer cell line.

AN3CA = conditions: for IC50: Homo sapiens, AN3-CA, 144 h, AN3CA (endometrial cells), 6 days
Procedure: as §1, §2

DLD1 = conditions: Homo sapiens, DLD-1, 144 h; DLD1 tumor cell line; 6 days
Procedure: as §1, §2

DU145 = conditions: Homo sapiens, DU-145, 144 h; DU145 tumor cell line; 6 days
Procedure: as §1, §2

HEPG2 = conditions: Homo sapiens, 144 h; HEPG2 liver cancer cell line; 6 days
Procedure: as §1, §2

HT1080 = conditions: Homo sapiens, HT-1080, 144 h; HT1080 tumor cell line; 6 days
Procedure: as §1, §2

HT55 = conditions: Homo sapiens, 144 h; HT55 tumor cell line; 6 days
Procedure: as §1, §2

HUH7 = conditions: Homo sapiens, Huh-7, 144 h; HUH7 liver cancer cell line; 6 days
Procedure: as §1, §2

JHH2 = conditions: JHH-2, 144 h; JHH2 liver cancer cell line; 6 days
Procedure: as §1, §2

JHH4 = conditions: JHH-4, 144 h; JHH4 liver cancer cell line; 6 days
Procedure: as §1, §2

JHH7 = conditions: 144 h; JHH7 liver cancer cell line; 6 days
Procedure: as §1, §2

LNCAP-clone-FGC = conditions: Homo sapiens, 144 h; LNCAP-clone-FGC tumor cell line; 6 days
Procedure: as §1, §2

Li-7 = conditions: 144 h; Li-7 liver cancer cell line; 6 days
Procedure: as §1, §2

MDA-MB-231 = conditions: Homo sapiens, 144 h; MDA-MB-231 tumor cell line; 6 days
Procedure: as §1, §2

NCl-H1648 = conditions: 144 h; NCl-H1648 tumor cell line; 6 days
Procedure: as §1, §2

NCl-H2170 = conditions: 144 h; NCl-H2170 tumor cell line; 6 days
Procedure: as §1, §2

NCl-H526 = conditions: 144 h; NCl-H526 tumor cell line; 6 days
Procedure: as §1, §2

NCl-H716 = conditions: 144 h; NCl-H716 tumor cell line; 6 days
Procedure: as §1, §2

SK-HEP-1 = conditions: Homo sapiens, SK-HEP1, 144 h; SK-HEP-1 liver cancer cell line; 6 days
Procedure: as §1, §2

SNU354 = conditions: Homo sapiens, SNU-354, 144 h; SNU354 liver cancer cell line; 6 days
Procedure: as §1, §2

SNU387 = conditions: Homo sapiens, SNU-387, 144 h; SNU387 liver cancer cell line; 6 days
Procedure: as §1, §2

SNU739 = conditions: SNU-739, 144 h; SNU739 liver cancer cell line; 6 days
Procedure: as §1, §2

SNU761 = conditions: 144 h; SNU761 liver cancer cell line; 6 days
Procedure: as §1, §2

For `Cc1ccc(F)c(NC(=O)Nc2ccc(-c3cccc4c3c(N)nn4C(=O)CCCCCCCCCCCNC(=O)C[C@H](N)C(=O)N[C@@H](CCC(=O)N[C@@H](CCC(=O)N[C@@H](CCC(=O)N[C@@H](CCC(=O)O)C(=O)O)C(=O)O)C(=O)O)C(=O)O)cc2)c1` [Compound 8], the IC50 (22RV1) was > 100 µM, the “difference of IC50 value versus Linifanib” value (AN3CA; AN3-CA (endometrial cells)) was 16.7 times and the IC50 (AN3CA) was 3.14 µM. The IC50 (DLD1) was 51.1 µM, the IC50 (DU145) was 20.7 µM and the IC50 (HEPG2) was 21.4 µM. For the same compound, the IC50 (HT1080) was 45.3 µM, the IC50 (HT55) was > 100 µM and the IC50 (HUH7) was 23.6 µM. For the same compound, the IC50 (JHH2) was > 100 µM, the IC50 (JHH4) was 95.9 µM and the IC50 (JHH7) was 20.7 µM. The IC50 (LNCAP-clone-FGC) was > 100 µM, the IC50 (Li-7) was 39.6 µM and the IC50 (MDA-MB-231) was 53.5 µM. The IC50 (NCl-H1648) was > 100 µM, the IC50 (NCl-H2170) was 51.9 µM and the IC50 (NCl-H526) was 100 µM. The IC50 (NCl-H716) was 26.9 µM, the IC50 (SK-HEP-1) was > 100 µM and the IC50 (SNU354) was 40.6 µM. It also gave an IC50 (SNU387) of 90.2 µM, an IC50 (SNU739) of 64.9 µM and an IC50 (SNU761) of 80.1 µM.

`Cc1ccc(F)c(NC(=O)Nc2ccc(-c3cccc4c3c(N)nn4C(=O)CCCCCNC(=O)C[C@H](N)C(=O)O)cc2)c1` [Compound 11] showed an IC50 (22RV1) of 90.1 µM, an IC50 (AN3CA) of 20.2 µM and an IC50 (DLD1) of 88.4 µM. It also gave an IC50 (DU145) of 26.4 µM, an IC50 (HEPG2) of 11.1 µM and an IC50 (HT1080) of 94.4 µM. For the same compound, the IC50 (HT55) was > 100 µM, the IC50 (HUH7) was 42.2 µM and the IC50 (JHH2) was 93.5 µM. The IC50 (JHH4) was 38.7 µM, the IC50 (JHH7) was 40 µM and the IC50 (LNCAP-clone-FGC) was 70.9 µM. The IC50 (Li-7) was 35.1 µM, the IC50 (MDA-MB-231) was 80.4 µM and the IC50 (NCl-H1648) was > 100 µM. For the same compound, the IC50 (NCl-H2170) was 72.8 µM, the IC50 (NCl-H526) was 92.4 µM and the IC50 (NCl-H716) was 82.2 µM. The IC50 (SK-HEP-1) was 55.4 µM, the IC50 (SNU354) was 63.3 µM and the IC50 (SNU387) was > 100 µM. The IC50 (SNU739) was 64 µM and the IC50 (SNU761) was 77 µM.

For `Cc1ccc(F)c(NC(=O)Nc2ccc(-c3cccc4[nH]nc(N)c34)cc2)c1` [Linifanib, reference compound], the IC50 (22RV1) was 7.5 µM, the IC50 (AN3CA) was 0.19 µM and the IC50 (DLD1) was 11.6 µM. For the same compound, the IC50 (DU145) was 5.01 µM, the IC50 (HEPG2) was 0.83 µM and the IC50 (HT1080) was 6.4 µM. The IC50 (HT55) was 22.3 µM, the IC50 (HUH7) was 1.67 µM and the IC50 (JHH2) was 29.5 µM. For the same compound, the IC50 (JHH4) was 10.6 µM, the IC50 (JHH7) was 1.83 µM and the IC50 (LNCAP-clone-FGC) was 11.3 µM. For the same compound, the IC50 (Li-7) was 5.43 µM, the IC50 (MDA-MB-231) was 4.03 µM and the IC50 (NCl-H1648) was 7.17 µM. The IC50 (NCl-H2170) was 4 µM, the IC50 (NCl-H526) was 7.8 µM and the IC50 (NCl-H716) was 4.1 µM. It also gave an IC50 (SK-HEP-1) of 7.11 µM, an IC50 (SNU354) of 4.58 µM and an IC50 (SNU387) of 12.3 µM. The IC50 (SNU739) was 5.45 µM and the IC50 (SNU761) was 8.98 µM.

In the case of `Cc1ccc(F)c(NC(=O)Nc2ccc(-c3cccc4c3c(N)nn4C(=O)CCCCCNC(=O)C[C@H](N)C(=O)N[C@@H](CCC(=O)N[C@@H](CCC(=O)N[C@@H](CCC(=O)N[C@@H](CCC(=O)N[C@@H](CCC(=O)N[C@@H](CCC(=O)N[C@@H](CCC(=O)N[C@@H](CCC(=O)N[C@@H](CCC(=O)O)C(=O)O)C(=O)O)C(=O)O)C(=O)O)C(=O)O)C(=O)O)C(=O)O)C(=O)O)C(=O)O)cc2)c1` [Compound 6], the IC50 (22RV1) is reported as > 100 µM, the IC50 (AN3CA) is reported as 55.4 µM and the IC50 (DLD1) is reported as > 100 µM. The IC50 (DU145) was 63.3 µM, the IC50 (HEPG2) was 43.4 µM and the IC50 (HT1080) was > 100 µM. For the same compound, the IC50 (HT55) was > 100 µM, the IC50 (HUH7) was 92.1 µM and the IC50 (JHH2) was > 100 µM. For the same compound, the IC50 (JHH4) was 79 µM, the IC50 (JHH7) was 83.2 µM and the IC50 (LNCAP-clone-FGC) was > 100 µM. The IC50 (Li-7) was 82 µM, the IC50 (MDA-MB-231) was > 100 µM and the IC50 (NCl-H1648) was > 100 µM. The IC50 (NCl-H2170) was > 100 µM, the IC50 (NCl-H526) was > 100 µM and the IC50 (NCl-H716) was 92.1 µM. For the same compound, the IC50 (SK-HEP-1) was > 100 µM, the IC50 (SNU354) was > 100 µM and the IC50 (SNU387) was > 100 µM. For the same compound, the IC50 (SNU739) was > 100 µM and the IC50 (SNU761) was > 100 µM.

With `Cc1ccc(F)c(NC(=O)Nc2ccc(-c3cccc4c3c(N)nn4C(=O)C[C@H](N)C(=O)N[C@@H](CCC(=O)O)C(=O)O)cc2)c1` [Compound 1] the IC50 (22RV1) was 6.69 µM, the IC50 (AN3CA) was 0.31 µM and the IC50 (DLD1) was 9.86 µM. It also gave an IC50 (DU145) of 2.76 µM, an IC50 (HEPG2) of 0.45 µM and an IC50 (HT1080) of 13.2 µM. For the same compound, the IC50 (HT55) was 16.8 µM, the IC50 (HUH7) was 3.22 µM and the IC50 (JHH2) was 28.9 µM. The IC50 (JHH4) was 2.62 µM, the IC50 (JHH7) was 1.81 µM and the IC50 (LNCAP-clone-FGC) was 5.47 µM. The IC50 (Li-7) was 5.35 µM, the IC50 (MDA-MB-231) was 3.95 µM and the IC50 (NCl-H1648) was 6.89 µM. The IC50 (NCl-H2170) was 0.97 µM, the IC50 (NCl-H526) was 6.6 µM and the IC50 (NCl-H716) was 1.82 µM. For the same compound, the IC50 (SK-HEP-1) was 4.59 µM, the IC50 (SNU354) was 3.91 µM and the IC50 (SNU387) was 12.8 µM. It also gave an IC50 (SNU739) of 4.56 µM and an IC50 (SNU761) of 9.53 µM.
